Tests used:
[1] = test system: Canine parvovirus type 2 (CPV2); assay: Viability assay of canine fibroblast cells infected with CPV2 (trypan blue exclusion); format: cell-based; details: 72 hours post treatment; for cell viability after infection with CPV: added 1 hour after CPV2 infection
Description: (§1) Methods: Canine fibroblast cells were cultured in Dulbecco's modified Eagle's medium (DMEM) supplemented with 5% fetal bovine serum, 2 mM L-glutamine, 0.1 mM MEM non-essential amino acids, 1 mM sodium pyruvate, 0.05 mM 2-mercaptoethanol, 10 mM HEPES, 100 units/mL penicillin, and 100 mcg/mL streptomycin, at 38° C. with 5% CO2. Canine parvovirus type 2 (CPV2) was isolated from a fecal sample collected from a naturally infected dog. The virus was propagated on canine fibroblast cells and a titer of 10^13.37 tissue culture infectious doses (TCID50)/mL was used for viability assays. For viability assays, cells were routinely passaged and seeded in 96 well plates at 5×10^4 cells/mL in 200 μL complete DMEM media and incubated overnight at 38° C. with 5% CO2. The media was then removed and cells were infected with CPV2 for 1 hour at 38° C. with 5% CO2. […] A minimum of 3 independent experiments were performed for each assay.
72 hours post treatment, cells were assayed for viability. […] Data shown are Mean±SEM, pooled from three independent experiments.

Canine fibroblast cells = assay: Viability of canine fibroblast cells in the absence of CPV infection (trypan blue exclusion); details: 1 μM, 72 hours
Description: as §1
Data shown are Mean±SEM, pooled from three independent experiments.

Canine parvovirus (CPV) = assay: Treatment of puppies naturally infected with CPV, standard veterinary protocol supplemented with oral ferric citrate solution; format: in vivo, dog; details: for survival rate: twice daily for up to five days, monitored for 14 days
Description: Puppies presenting with symptoms of CPV infection, including vomiting, diarrhea, hematochezia, lethargy, and depression, were tested for CPV infection using IDEXX Laboratories SNAP® Parvo Test per manufacturer's protocols.

Row | Compound | decrease in survival compared to cells infected with CPV ([1]; 1 μM, CPV-infected cells) | decrease in survival compared to the untreated cells ([1]; 1 μM, CPV-infected cells) | viability of treated versus untreated cells in the absence of CPV infection (Canine fibroblast cells) | survival rate (Canine parvovirus (CPV); 0.22 mg/kg orally, 1/3) | mortality of the smallest puppies (<5 lbs) (Canine parvovirus (CPV); 0.22 mg/kg, lowest concentration tested) | survival rate (Canine parvovirus (CPV); 1.1 mg/kg orally, 2/5) | survival rate (Canine parvovirus (CPV); 2.2 mg/kg (highest concentration) orally, 5/5) | survival from natural infections with CPV with increasing concentrations (Canine parvovirus (CPV); increasing concentrations of ferric citrate (FIG. 3)) | cell viability after infection with CPV ([1]; 1 μM) | cell viability after infection with CPV ([1]; 10 μM)
1 | CC(=O)N(O)CCCCCNC(=O)CCC(=O)N(O)CCCCCNC(=O)CCC(=O)N(O)CCCCCN [deferoxamine, reference compound] | 23% | 45% | no significant difference | – | – | – | – | – | – | –
2 | ferric citrate | – | – | – | 33.33% | not able to prevent mortality | 40% | 100% | increased survival | significant increase | significant increase
